According to the NIST ThermoML archive (doi:10.1016/j.jct.2019.01.025):
Numbers after ± are expanded uncertainties.

Settings: 101.33 kPa, Liquid, Vibrating tube method

Structure (SMILES)	mass density (293.15 K) [kg/m3]	mass density (298.15 K) [kg/m3]	mass density (303.15 K) [kg/m3]	mass density (308.15 K) [kg/m3]	mass density (313.15 K) [kg/m3]	mass density (318.15 K) [kg/m3]	mass density (323.15 K) [kg/m3]
CC(C)(C)O [2-methylpropan-2-ol]		780.61 ± 4	775.42 ± 4	770.21 ± 4	764.92 ± 4	759.42 ± 4	753.95 ± 4
CCCCO [butan-1-ol]	809.77 ± 4	805.92 ± 4	802 ± 4	798.14 ± 4	794.24 ± 4	790.2 ± 4	786.21 ± 4
CCO [ethanol]	789.4 ± 4	785.13 ± 4	780.75 ± 4	776.41 ± 4	772.04 ± 4	767.52 ± 4	763.04 ± 4
CCCO [propan-1-ol]	803.77 ± 4	799.69 ± 4	795.58 ± 4	791.52 ± 4	787.42 ± 4	783.17 ± 4	778.96 ± 4

Further lines, results first:

mass density (293.15 K) [kg/m3]	mass density (298.15 K) [kg/m3]	mass density (303.15 K) [kg/m3]	mass density (308.15 K) [kg/m3]	mass density (313.15 K) [kg/m3]	mass density (318.15 K) [kg/m3]	mass density (323.15 K) [kg/m3]	Structure (SMILES)
801.85 ± 4	797.99 ± 4	794.03 ± 4	790.09 ± 4	786.12 ± 4	781.97 ± 4	777.86 ± 4	CC(C)CO [2-methyl-1-propanol]
785.1 ± 4	780.91 ± 4	776.57 ± 4	772.24 ± 4	767.82 ± 4	763.19 ± 4	758.55 ± 4	CC(C)O [propan-2-ol]
